Earlier results in article PMC12181400, “Leveraging viral genome sequences and machine learning models for identification of potentially selective antiviral agents” (Communications Chemistry, 2025).
Where a name gives a salt, the structure may show the parent alone. Read-outs that look alike come from different tables or passages of the source.

Assays:
Conditions in all cases: cited from earlier work
[1] = test system: cell viability (tox21-car-antagonist-p1)
[2] = test system: cell viability (tox21-car-agonist-p1)
[3] = test system: cell viability (tox21-ar-mda-kb2-luc-agonist-p3)
[4] = test system: cell viability (tox21-ar-mda-kb2-luc-antagonist-p2)
[5] = test system: cell viability (tox21-are-bla-p1)
[6] = test system: cell viability (tox21-ap1-agonist-p1)
[7] = curve rank −9 to 9, 0 = inactive, ref NCATS Tox21 public data browser

Nc1cc(N2CCCCC2)nc(N)[n+]1[O-] [Minoxidil]
0: tox21-car-antagonist-p1-viability (curve rank) [1] | tox21-car-agonist-p1-viability (curve rank) [2] | tox21-ar-mda-kb2-luc-agonist-p3-viability (curve rank) [3] | tox21-ar-mda-kb2-luc-antagonist-p2-viability (curve rank) [4] | tox21-are-bla-p1-viability (curve rank) [5] | tox21-ap1-agonist-p1-viability (curve rank) [6]

COC(=O)[C@H](c1ccccc1Cl)N1CCc2sccc2C1 [Clopidogrel bisulfate]
0: tox21-car-antagonist-p1-viability (curve rank) [1] | tox21-car-agonist-p1-viability (curve rank) [2] | tox21-ar-mda-kb2-luc-agonist-p3-viability (curve rank) [3] | tox21-ar-mda-kb2-luc-antagonist-p2-viability (curve rank) [4] | tox21-are-bla-p1-viability (curve rank) [5] | tox21-ap1-agonist-p1-viability (curve rank) [6]

CN1C(=O)CC(c2ccccc2)C1=O (stereo not drawn) [Phensuximide]
0: tox21-car-antagonist-p1-viability (curve rank) [1] | tox21-car-agonist-p1-viability (curve rank) [2] | tox21-ar-mda-kb2-luc-agonist-p3-viability (curve rank) [3] | tox21-ar-mda-kb2-luc-antagonist-p2-viability (curve rank) [4] | tox21-are-bla-p1-viability (curve rank) [5] | tox21-ap1-agonist-p1-viability (curve rank) [6]

CCCCC1(COC(=O)CCC(=O)O)C(=O)N(c2ccccc2)N(c2ccccc2)C1=O [Suxibuzone]
0: tox21-car-antagonist-p1-viability (curve rank) [1] | tox21-car-agonist-p1-viability (curve rank) [2] | tox21-ar-mda-kb2-luc-agonist-p3-viability (curve rank) [3] | tox21-ar-mda-kb2-luc-antagonist-p2-viability (curve rank) [4] | tox21-are-bla-p1-viability (curve rank) [5] | tox21-ap1-agonist-p1-viability (curve rank) [6]

C/C(=C(\CCOP(=O)(O)O)SC(=O)c1ccccc1)N(C=O)Cc1cnc(C)nc1N [Benfotiamine]
0: tox21-car-antagonist-p1-viability (curve rank) [1] | tox21-car-agonist-p1-viability (curve rank) [2] | tox21-ar-mda-kb2-luc-agonist-p3-viability (curve rank) [3] | tox21-ar-mda-kb2-luc-antagonist-p2-viability (curve rank) [4] | tox21-are-bla-p1-viability (curve rank) [5] | tox21-ap1-agonist-p1-viability (curve rank) [6]

CC1(C)S[C@@H]2[C@H](NC(=O)Cc3ccccc3)C(=O)N2[C@H]1C(=O)O.CC1(C)S[C@@H]2[C@H](NC(=O)Cc3ccccc3)C(=O)N2[C@H]1C(=O)O.c1ccc(CNCCNCc2ccccc2)cc1 [Benzathine penicillin G]
0: tox21-car-antagonist-p1-viability (curve rank) [1, 7] | tox21-car-agonist-p1-viability (curve rank) [2, 7] | tox21-ar-mda-kb2-luc-agonist-p3-viability (curve rank) [3, 7] | tox21-ar-mda-kb2-luc-antagonist-p2-viability (curve rank) [4, 7] | tox21-are-bla-p1-viability (curve rank) [5, 7] | tox21-ap1-agonist-p1-viability (curve rank) [6, 7]

c1ccc2c(c1)CCCC2C1=NCCN1 (stereo not drawn) [Tetrahydrozoline hydrochloride]
0: tox21-car-antagonist-p1-viability (curve rank) [1] | tox21-car-agonist-p1-viability (curve rank) [2] | tox21-ar-mda-kb2-luc-agonist-p3-viability (curve rank) [3] | tox21-ar-mda-kb2-luc-antagonist-p2-viability (curve rank) [4] | tox21-are-bla-p1-viability (curve rank) [5] | tox21-ap1-agonist-p1-viability (curve rank) [6]

CC(C)(C)NCC(O)COc1cccc2c1CCC(=O)N2 (stereo not drawn) [Carteolol hydrochloride]
0: tox21-car-antagonist-p1-viability (curve rank) [1] | tox21-car-agonist-p1-viability (curve rank) [2] | tox21-ar-mda-kb2-luc-agonist-p3-viability (curve rank) [3] | tox21-ar-mda-kb2-luc-antagonist-p2-viability (curve rank) [4] | tox21-are-bla-p1-viability (curve rank) [5] | tox21-ap1-agonist-p1-viability (curve rank) [6]

COP(=S)(OC)Oc1ccc(SC)c(C)c1 [Fenthion]
0: tox21-car-antagonist-p1-viability (curve rank) [1, 7] | tox21-car-agonist-p1-viability (curve rank) [2, 7] | tox21-ar-mda-kb2-luc-agonist-p3-viability (curve rank) [3, 7] | tox21-ar-mda-kb2-luc-antagonist-p2-viability (curve rank) [4, 7] | tox21-are-bla-p1-viability (curve rank) [5, 7] | tox21-ap1-agonist-p1-viability (curve rank) [6, 7]

COc1cc(-c2ccc(=O)[nH]n2)ccc1OC(F)F [Zardaverine]
0: tox21-car-antagonist-p1-viability (curve rank) [1, 7] | tox21-car-agonist-p1-viability (curve rank) [2, 7] | tox21-ar-mda-kb2-luc-agonist-p3-viability (curve rank) [3, 7] | tox21-ar-mda-kb2-luc-antagonist-p2-viability (curve rank) [4, 7] | tox21-are-bla-p1-viability (curve rank) [5, 7] | tox21-ap1-agonist-p1-viability (curve rank) [6, 7]

CCCCCC(C)N.O=S(=O)(O)O (stereo not drawn) [2-Aminoheptane sulfate]
0: tox21-car-antagonist-p1-viability (curve rank) [1, 7] | tox21-car-agonist-p1-viability (curve rank) [2, 7] | tox21-ar-mda-kb2-luc-agonist-p3-viability (curve rank) [3, 7] | tox21-ar-mda-kb2-luc-antagonist-p2-viability (curve rank) [4, 7] | tox21-are-bla-p1-viability (curve rank) [5, 7] | tox21-ap1-agonist-p1-viability (curve rank) [6, 7]

Cc1ncc([N+](=O)[O-])n1CC(C)O (stereo not drawn) [Secnidazole]
0: tox21-car-antagonist-p1-viability (curve rank) [1, 7] | tox21-car-agonist-p1-viability (curve rank) [2, 7] | tox21-ar-mda-kb2-luc-agonist-p3-viability (curve rank) [3, 7] | tox21-ar-mda-kb2-luc-antagonist-p2-viability (curve rank) [4, 7] | tox21-are-bla-p1-viability (curve rank) [5, 7] | tox21-ap1-agonist-p1-viability (curve rank) [6, 7]

CCn1cc(C(=O)O)c(=O)c2cnc(N3CCNCC3)nc21 [Pipemidic acid]
0: tox21-car-antagonist-p1-viability (curve rank) [1] | tox21-car-agonist-p1-viability (curve rank) [2] | tox21-ar-mda-kb2-luc-agonist-p3-viability (curve rank) [3] | tox21-ar-mda-kb2-luc-antagonist-p2-viability (curve rank) [4] | tox21-are-bla-p1-viability (curve rank) [5] | tox21-ap1-agonist-p1-viability (curve rank) [6]

Nc1ccc(S(=O)(=O)Nc2ccccn2)cc1 [Sulfapyridine]
0: tox21-car-antagonist-p1-viability (curve rank) [1] | tox21-car-agonist-p1-viability (curve rank) [2] | tox21-ar-mda-kb2-luc-agonist-p3-viability (curve rank) [3] | tox21-ar-mda-kb2-luc-antagonist-p2-viability (curve rank) [4] | tox21-are-bla-p1-viability (curve rank) [5] | tox21-ap1-agonist-p1-viability (curve rank) [6]

CC(C(=O)O)c1ccc(C(=O)c2ccccc2)s1 (stereo not drawn) [Tiaprofenic acid]
0: tox21-car-antagonist-p1-viability (curve rank) [1] | tox21-car-agonist-p1-viability (curve rank) [2] | tox21-ar-mda-kb2-luc-agonist-p3-viability (curve rank) [3] | tox21-ar-mda-kb2-luc-antagonist-p2-viability (curve rank) [4] | tox21-are-bla-p1-viability (curve rank) [5] | tox21-ap1-agonist-p1-viability (curve rank) [6]

COc1cccc(C2(O)CCCCC2CN(C)C)c1.Cl (stereo not drawn) [Tramadol hydrochloride]
0: tox21-car-antagonist-p1-viability (curve rank) [1, 7] | tox21-car-agonist-p1-viability (curve rank) [2, 7] | tox21-ar-mda-kb2-luc-agonist-p3-viability (curve rank) [3, 7] | tox21-ar-mda-kb2-luc-antagonist-p2-viability (curve rank) [4, 7] | tox21-are-bla-p1-viability (curve rank) [5, 7] | tox21-ap1-agonist-p1-viability (curve rank) [6, 7]

NC(=O)c1ccc([N+](=O)[O-])cc1Cl [2-Chloro-4-nitrobenzamide]
0: tox21-car-antagonist-p1-viability (curve rank) [1, 7] | tox21-car-agonist-p1-viability (curve rank) [2, 7] | tox21-ar-mda-kb2-luc-agonist-p3-viability (curve rank) [3, 7] | tox21-ar-mda-kb2-luc-antagonist-p2-viability (curve rank) [4, 7] | tox21-are-bla-p1-viability (curve rank) [5, 7] | tox21-ap1-agonist-p1-viability (curve rank) [6, 7]

Nc1c2c(nc3ccccc13)CCCC2O.O=C(O)/C=C\C(=O)O (stereo not drawn) [Hydroxytacrine maleate]
0: tox21-car-antagonist-p1-viability (curve rank) [1, 7] | tox21-car-agonist-p1-viability (curve rank) [2, 7] | tox21-ar-mda-kb2-luc-agonist-p3-viability (curve rank) [3, 7] | tox21-ar-mda-kb2-luc-antagonist-p2-viability (curve rank) [4, 7] | tox21-are-bla-p1-viability (curve rank) [5, 7] | tox21-ap1-agonist-p1-viability (curve rank) [6, 7]

NC(Cc1ccc(Cl)cc1)C(=O)O (stereo not drawn) [Fenclonine]
0: tox21-car-antagonist-p1-viability (curve rank) [1] | tox21-car-agonist-p1-viability (curve rank) [2] | tox21-ar-mda-kb2-luc-agonist-p3-viability (curve rank) [3] | tox21-ar-mda-kb2-luc-antagonist-p2-viability (curve rank) [4] | tox21-are-bla-p1-viability (curve rank) [5] | tox21-ap1-agonist-p1-viability (curve rank) [6]

CCCCCC(N)=O [Hexanamide]
0: tox21-car-antagonist-p1-viability (curve rank) [1, 7] | tox21-car-agonist-p1-viability (curve rank) [2, 7] | tox21-ar-mda-kb2-luc-agonist-p3-viability (curve rank) [3, 7] | tox21-ar-mda-kb2-luc-antagonist-p2-viability (curve rank) [4, 7] | tox21-are-bla-p1-viability (curve rank) [5, 7] | tox21-ap1-agonist-p1-viability (curve rank) [6, 7]

CCOC(=O)[N-]c1cn(N2CCOCC2)n[o+]1 [Molsidomine]
0: tox21-car-antagonist-p1-viability (curve rank) [1] | tox21-car-agonist-p1-viability (curve rank) [2] | tox21-ar-mda-kb2-luc-agonist-p3-viability (curve rank) [3] | tox21-ar-mda-kb2-luc-antagonist-p2-viability (curve rank) [4] | tox21-are-bla-p1-viability (curve rank) [5] | tox21-ap1-agonist-p1-viability (curve rank) [6]

Cc1oncc1C(=O)Nc1ccc(C(F)(F)F)cc1 [Leflunomide]
0: tox21-car-antagonist-p1-viability (curve rank) [1] | tox21-car-agonist-p1-viability (curve rank) [2] | tox21-ar-mda-kb2-luc-agonist-p3-viability (curve rank) [3] | tox21-ar-mda-kb2-luc-antagonist-p2-viability (curve rank) [4] | tox21-are-bla-p1-viability (curve rank) [5] | tox21-ap1-agonist-p1-viability (curve rank) [6]

CC(C)NNC(=O)c1ccncc1 [Iproniazid sulfate]
0: tox21-car-antagonist-p1-viability (curve rank) [1] | tox21-car-agonist-p1-viability (curve rank) [2] | tox21-ar-mda-kb2-luc-agonist-p3-viability (curve rank) [3] | tox21-ar-mda-kb2-luc-antagonist-p2-viability (curve rank) [4] | tox21-are-bla-p1-viability (curve rank) [5] | tox21-ap1-agonist-p1-viability (curve rank) [6]
